Source: PMC4579641 (BMC Complementary and Alternative Medicine, 2015)
Converted amounts (≈) assume the structure as drawn. Read-outs that look alike come from different tables or passages of the source.

Legend:
[1] = system: Mycobacterium tuberculosis H37Rv; test: Minimum Inhibitory Concentration by the Alamar Blue technique, M. tuberculosis; format: cell-based; conditions: for MIC: Mycobacterium tuberculosis, 168 h, read-out: Antimycobacterial activity, M. tuberculosis MIC
[2] = system: Mycobacterium bovis AN5; test: microbe, parasite or virus in culture; format: cell-based; conditions: for Antimycobacterial activity, M. bovis MIC: AN5 strain, Alamar Blue, 7 days incubation, average and standard deviation of triplicate assays; for MIC: Mycobacterium tuberculosis variant bovis, AN5, 168 h, read-out: Antimycobacterial activity, M. bovis MIC
[3] = system: M. tuberculosis; design: method as in PMID 17924309; conditions: cited from earlier work
[4] = system: J774A mouse monocyte macrophage cell line; test: Cytotoxic activity on macrophages, alamar blue; format: cell-based; conditions: J774A CC50 versus mycobacterial MIC
Description: (§1) The J774A mouse monocyte macrophage cell line was grown in RPMI medium (Sigma, R0883) supplemented with 10 % heat inactivated fetal bovine serum (FBS, Sigma-Aldrich), 1 % MEM-NEAA medium (Gibco, 11140–050) and a mixture of penicillin-streptomycin to 1 %. The cell culture was maintained at 37 °C with a partial atmosphere of 5 % CO2, the evaluations were carried out when 80–90 % confluence was reached.
(§2) In a 96 well plate 50,000 cells per well were deposited in a final volume of 100 μL, and incubated for 24 h at 37 °C in partial CO2 atmosphere to promote cell adhesion for an approximate 80 % confluence. Chemical compounds to be analyzed were diluted in DMSO; cytotoxic activity was evaluated by adding twofold serial dilutions of the compound to be analyzed, starting at a 1600 μg/mL concentration; the plates were further incubated (24 h). For cytotoxic evaluation, alamar blue (Sigma, R7017) solution was added (10 % v/v) and after 3 h, results were evaluated by determination of the change in color using a fluorimeter (590 nm). For negative control, cells were incubated with 500 μg/mL concentration of DMSO (Sigma, 472301), which was the highest concentration. Cytotoxic concentration (CC50) was determined using probit non-linear regression.

[5] = Cytotoxic activity on macrophages, alamar blue; format: cell-based, mouse; conditions: mouse, J774A monocyte macrophage cell line; J774 macrophages, 24 h; average and standard deviation of three assays
Description: as §1, §2

[6] = H37Rv strain, Alamar Blue, 7 days incubation, average and standard deviation of triplicate assays

| Structure (SMILES) | MIC [1, 6] | MIC [2] | further results |
| --- | --- | --- | --- |
| O=C(O)/C=C/c1ccccc1 [Cinnamic Acid] | 8.16 mg/L (≈ 55.1 µM) | 7.29 mg/L (≈ 49.2 µM) | Antimycobacterial activity, M. tuberculosis MIC [1, 6]: 8.16 ± 3.32^FG μg/mL; Antimycobacterial activity, M. bovis MIC [2]: 7.29 ± 4.73^DE μg/mL |
| CC12CCC(CC1=O)C2(C)C (centres unmarked) [Camphor] | 41.7 ± 14.4 mg/L (≈ 274 µM) | 50 mg/L (≈ 328 µM) |  |
| CC(=O)OC/C=C(\C)CC/C=C(\C)CC/C=C(\C)CCC=C(C)C [geranylgeranyl acetate] |  |  | MIC against M. tuberculosis [3]: 3.13 mg/L |
| C=C1CCC2(C(C)C)CC12 (centres unmarked) [Sabinene] | 33.3 ± 14.4 mg/L (≈ 245 µM) | 25 mg/L (≈ 184 µM) |  |
| CC(C)c1ccc(C=O)cc1 [Cuminaldehyde] | 10.4 ± 3.61 mg/L (≈ 70.2 µM) | 20.8 ± 7.22 mg/L (≈ 141 µM) |  |
| C=CCc1ccc(O)c(OC)c1 [Eugenol] | 25 mg/L (≈ 152 µM) | 20.8 ± 7.22 mg/L (≈ 127 µM) |  |
| O=C/C=C/c1ccccc1 [Cinnamaldehyde] | 3.12 mg/L (≈ 23.6 µM) | 12.5 mg/L (≈ 94.6 µM) | Antimycobacterial activity, M. tuberculosis MIC [1, 6]: 3.12 ± 0.00^EFG μg/mL; Antimycobacterial activity, M. bovis MIC [2]: 12.50 ± 0.00^DE μg/mL |
| C=CC(C)(O)CCC=C(C)C (centres unmarked) [Linalool] | 33.3 ± 14.4 mg/L (≈ 216 µM) | 41.7 ± 14.4 mg/L (≈ 270 µM) |  |
| Cc1ccc(C(C)C)cc1O [Carvacrol] | 2.02 mg/L (≈ 13.4 µM) | 5.2 mg/L (≈ 34.6 µM) | Antimycobacterial activity, M. tuberculosis MIC [1, 6]: 2.02 ± 0.88^FG μg/mL; CC50 concentration higher than the concentration needed for mycobacterial elimination [4]: approximately 500 fold; CC50 at 24 h [5]: 900 ± 86.6 mg/L (≈ 5990 µM); CC90 at 24 h [5]: 1950 ± 107 mg/L (≈ 13000 µM); Antimycobacterial activity, M. bovis MIC [2]: 5.20 ± 1.81^DE μg/mL |
| Cc1ccc(C(C)C)c(O)c1 [Thymol] | 0.78 mg/L (≈ 5.19 µM) | 2.02 mg/L (≈ 13.4 µM) | Antimycobacterial activity, M. tuberculosis MIC [1, 6]: 0.78 ± 0.01^G μg/mL; CC50 concentration higher than the concentration needed for mycobacterial elimination [4]: approximately 500 fold; CC50 at 24 h [5]: 483 ± 28.9 mg/L (≈ 3220 µM); CC90 at 24 h [5]: 1130 ± 115 mg/L (≈ 7540 µM); Antimycobacterial activity, M. bovis MIC [2]: 2.02 ± 0.88^E μg/mL |
| NNC(=O)c1ccncc1 [Isoniazid, reference compound] |  | 0.16 ± 0.3 mg/L (≈ 1.17 µM) | MIC ([1]; H37RV): 0.26 ± 0.01 mg/L (≈ 1.9 µM) |
| CC1=CCC2C(C1)C2(C)C (centres unmarked) [3-Carene] | 16.7 ± 7.22 mg/L (≈ 122 µM) | 33.3 ± 14.4 mg/L (≈ 245 µM) |  |
| C=C1CC/C=C(\C)CC[C@@H]2[C@@H]1CC2(C)C [β-Caryophyllene] | 100 mg/L (≈ 489 µM) | 100 mg/L (≈ 489 µM) |  |
| CC1CCC(C(C)C)C(O)C1 (centres unmarked) [Menthol] | 41.7 ± 14.4 mg/L (≈ 267 µM) | 83.3 ± 14.4 mg/L (≈ 533 µM) | CC50 at 24 h [5]: 1450 ± 180 mg/L (≈ 9280 µM); CC90 at 24 h [5]: 2600 ± 304 mg/L (≈ 16600 µM) |
| CO[C@H]1/C=C/O[C@@]2(C)Oc3c(C)c(O)c4c(O)c(c(/C=N/N5CCN(C)CC5)c(O)c4c3C2=O)NC(=O)/C(C)=C\C=C\[C@H](C)[C@H](O)[C@@H](C)[C@@H](O)[C@@H](C)[C@H](OC(C)=O)[C@@H]1C [Rifampicin, reference compound] | 0.6 ± 0.14 mg/L (≈ 0.729 µM) | 0.5 ± 0.01 mg/L (≈ 0.608 µM) |  |
| C=C1CCC2CC1C2(C)C (stereo not drawn) [β-pinene] | 10.4 ± 3.61 mg/L (≈ 76.4 µM) | 41.7 ± 14.4 mg/L (≈ 306 µM) |  |
| CC12CCC(CC1)C(C)(C)O2 [Eucalyptol] | 41.7 ± 14.4 mg/L (≈ 270 µM) | 41.7 ± 14.4 mg/L (≈ 270 µM) |  |
| C=CCc1ccc(OC)cc1 [Estragole] | 20.8 ± 7.22 mg/L (≈ 141 µM) | 25 mg/L (≈ 169 µM) |  |
| Cc1ccc(C(C)C)cc1 [p-Cymene] | 91.7 ± 14.4 mg/L (≈ 683 µM) | 91.7 ± 14.4 mg/L (≈ 683 µM) | CC50 at 24 h [5]: 1170 ± 44.3 mg/L (≈ 8690 µM); CC90 at 24 h [5]: 2200 ± 86.6 mg/L (≈ 16400 µM) |
| CC1=CCC(=C(C)C)CC1 [Terpinolene] | 8.33 ± 3.61 mg/L (≈ 61.1 µM) | 33.3 ± 14.4 mg/L (≈ 245 µM) |  |
| COc1ccc(C=O)cc1 [p-Anisaldehyde] | 4.16 ± 1.81 mg/L (≈ 30.6 µM) | 10.4 ± 3.61 mg/L (≈ 76.5 µM) |  |
| C=C(C)[C@H]1CC=C(C)CC1 [(+) Limonene] | 25 mg/L (≈ 184 µM) | 41.7 ± 14.4 mg/L (≈ 306 µM) |  |
| C=C(C)[C@@H]1CC=C(C)C(=O)C1 [(+) Carvone] | 20.8 ± 7.22 mg/L (≈ 139 µM) | 41.3 ± 15 mg/L (≈ 275 µM) |  |
| C/C=C/c1ccc(OC)cc1 [t-Anethole] | 20.8 ± 7.22 mg/L (≈ 141 µM) | 58.3 ± 14.4 mg/L (≈ 394 µM) |  |
| CC(C)=CCCC(C)CCO (stereo not drawn) [β-Citronellol] | 6.25 mg/L (≈ 40 µM) | 10.4 ± 3.61 mg/L (≈ 66.6 µM) | Antimycobacterial activity, M. tuberculosis MIC [1, 6]: 6.25 ± 0.00^FG μg/mL |
| CC1=CC=C(C(C)C)CC1 [α-Terpinene] | 10.4 ± 3.61 mg/L (≈ 76.4 µM) | 20.8 ± 7.22 mg/L (≈ 153 µM) |  |
| C=CC(=C)CCC=C(C)C [Myrcene] | 25 mg/L (≈ 184 µM) | 33.3 ± 14.4 mg/L (≈ 245 µM) | Antimycobacterial activity, M. tuberculosis MIC [1, 6]: 25.00 ± 0.00^CDEF μg/mL |
| CC(C)=CCC/C(C)=C/CO [Geraniol] | 12.5 mg/L (≈ 81 µM) | 12.5 mg/L (≈ 81 µM) | Antimycobacterial activity, M. tuberculosis MIC [1, 6]: 12.50 ± 0.00^EFG μg/mL |
| CC(C)=CCC/C(C)=C/CC/C(C)=C/CC/C(C)=C/CO [Geranylgeraniol] |  |  | MIC against M. tuberculosis [3]: 1.56 mg/L (≈ 5.37 µM) |
